Measurements reported in article PMC11607671, “Antiviral activity of cathelicidins against porcine epidemic diarrhea virus (PEDV): Mechanisms, and efficacy” (Virus Research, 2024).

Tests used:
PEDV = assay: Transmission electron microscopy of peptide-treated virus; design: species or system Porcine epidemic diarrhea virus; details: PEDV treated with 10 µM peptide, negative stain, Fig. 9
Method: PEDV was treated with CATH-B1, LL-37, PMAP-23, and PMAP-36 for one minute at 37 °C. Subsequently, 10 µL of the sample was placed onto a freshly carbon-coated copper grid. The grids were washed 3 times with PBS and then fixed with 1% glutaraldehyde (Sigma-Aldrich, St. Louis, MO, USA) in PBS for 10 min. Following this fixation, the grids were rinsed 2 times with PBS and 4 times with MilliQ water. They were stained for 5 min in Uranyl Acetate (pH 7) then briefly washed with methylcellulose/uranyl acetate (pH 4) and incubated for 5 min on ice. Finally, the grids were looped out of the solution and air-dried. The samples were subsequently examined in a JEM1010 (JEOL) equipped with a Veleta 2k × 2k CCD camera (EMSIS, Munster, Germany).
Fig. 9 The effect of AMPs on the morphology of the virus. PEDV (MOI=0.3), which was pre-incubated with peptides. TEM images were taken of PEDV alone (A–D), PEDV treated with 10 µM LL-37 (E-H), PEDV treated with 10 µM CATH-B1 (I-L), PEDV treated with 10 µM PMAP-23 (M, N), and PEDV treated with 10 µM PMAP-36 (O, P). […] Micrographs were captured with a pixel size of 0,5 nm and analyzed visually using ImageJ. The micrographs are representative of observations from three independent experiments. Scale bars represent 100 nm.

PEDV-GFP [1] = assay: Pre-incubation (pre-treatment) antiviral assay; type: cell-based, Porcine epidemic diarrhea virus; details: Vero cells treated 3 h with AMPs (0-10 µM), washed, then infected with PEDV-GFP MOI 0.3 for 2 h; FC; Fig. 6B, C
Method: The effect of AMPs on viral infectivity was also determined when they were added to Vero-cells before (pre-treatment) or after (post-treatment) infection. In the pre-treatment assay (Fig. 6A), Vero cells were treated with different concentrations of CATH-B1 and LL-37 peptides (ranging from 0 to 10 µM) for various durations (1, 2, 3, 4, and 24 h) at 37 °C. Subsequently, the cells were washed 2 times with PBS and infected with PEDV-GFP at an MOI of 0.3 for 2 h
In post-incubation assays (Fig. 7A), cells were initially exposed to the virus for 2 h, washed 2times with PBS and subsequently treated with AMPs for 3 h Both for pre- and post-infection assays, after the respective incubation periods, the cells were assessed using fluorescence microscopy and quantified using FC as described above.
Fig. 6 Effects of AMPs in pre-incubation assay. A) Experimental set-up of pre-incubation experiment. B) FC was employed to quantify the percentage of GFP-positive cells during pre-incubation. […] The reported values represent the mean ± SD derived from three independent experiments performed in triplicate. * p < 0.05; ** p < 0.01.

PEDV-GFP [2] = assay: Co-incubation antiviral assay of the extended AMP panel and of FL LL-37; type: cell-based, Porcine epidemic diarrhea virus; details: co-incubation with PEDV-GFP, 1 and 5 µM, 3 h, FC; two independent experiments in duplicate; Fig. 5
Method: In order to determine the effect of AMPs on the infectivity of PEDV, Vero cells (5 × 10^5 per well) were seeded in 12-well plates and cultured overnight at 37 °C, 5% CO2. In a co-incubation of virus and AMPs experiments (Fig. 2A), the mixture of AMPs (0–10 µM) and PEDV-GFP (MOI= 0.3) in a 1 mL volume of DMEM (P/S + 10% FCS) was added to the cells and incubated at 37 °C. After 2 h, the supernatant was replaced with fresh DMEM (P/S + 10% FCS) and incubated for 24 h. Subsequently, the cells were washed 2 times with flow cytometry buffer (500 mL PBS+ 10 mL FCS+ 250 µL of 10% NaN3) and were imaged with an EVOS M5000 Imaging System for semi-quantitative determination of infectivity. Eventually, cells were carefully detached by 2.5% trypsin, stained with ViaKrome 808 fixable viability dye (1:1000), and incubated for 30 min at 4 °C. Following washing, the cells were fixed using 50 µL of 4% PFA for 10 min, and a minimum of 1 × 10^5 cells were acquired using the CytoFLEX LX Flow Cytometer (FC)(Beckman Coulter, USA). Data was analyzed using FlowJo software v.10.6 (Flowjo LCC, Ashland, OR, USA).
This extended panel of AMPs encompassed chicken-derived peptides (D-CATH-2, l-CATH-2), mouse-derived peptide (CRAMP), horse-derived peptides (eCATH-1, eCATH-3), parrot-derived peptides (ER2, ER3, AG3), and synthetic peptides (CR165, CR174), all of which were readily accessible within our laboratory. As previously described, these AMPs were co-incubated with PEDV.
Fig. 5 Antiviral effects of a diverse group of AMPs on PEDV infection. Vero cells were incubated for 3 h with a combination of PEDV-GFP and AMPs, as described previously. FC was utilized to assess the inhibitory impact of AMPs.
Figure S4. The antiviral activity of FL LL-37 (fluorogenic LL-37 ) and unlabeled LL-37. Peptides were co-incubated at 1 and 5 µM with PEDV and added to Vero cells for 3 h, followed by FC analysis to examine the infectivity.

Vero cells = assay: LDH release cytotoxicity assay; type: cell-based, African green monkey; details: 0-10 µM AMPs in DMEM, 3 h and 24 h, LDH release relative to 1% Triton X-100 lysis, three independent experiments, Fig. 1A+B
Method: Vero-mCeacam cells (Vero cells), derived from African green monkey kidney cells, were maintained in DMEM (Gibco, Thermo Fisher Scientific, Waltham, MA) supplemented with 10% FCS (Bodinco B.V., Alkmaar, The Netherlands) and 200 units/mL penicillin, and […] (P/S) (Gibco, Life Technologies Limited, Paisley, UK) at 37 °C and 5% CO2.
To assess the cytotoxicity of peptides, Vero cells were treated with AMPs (0 − 10 μM in DMEM) as outlined in paragraph 2.5. After 3 and 24 h of stimulation, the fraction of lactate dehydrogenase (LDH) released into the culture supernatant was measured using the Cyto Tox 96 nonradioactive cytotoxicity kit (Promega GmbH, Walldorf, Germany) according to the manufacturer's instructions, and expressed as a percentage of the maximum LDH release from cells, lysed by 1% Triton X-100 (Sigma-Aldrich, T8787, Darmstadt, Germany).
Fig. 1 The cytotoxicity of AMPs on Vero cells. Cells were incubated with 0 – 10 µM AMPs for either 3 h or 24 h A and B) LDH release assay, indicating cell membrane permeability after 3 and 24 h, respectively. C and D) WST assay, measuring cell metabolic activity after 3 and 24 h, respectively. ‘No peptide‘ represents cells incubated with only growth medium for the indicated times, serving as a control. P.C in the LDH assay are cells that have been lysed by the lysis buffer representing 100% release of intracellular LDH. […]

What does the source list for “LLGDFFRKSKEKIGKEFKRIVQRIKDFLRNLVPRTES [LL-37, human cathelicidin antimicrobial peptide, 37 residues]”?
virus aggregation (TEM) (PEDV): in some cases, extensive virus aggregation; effect on virus morphology / membrane (TEM) (PEDV; one minute at 37 °C): significant membrane disruption; antiviral activity in pre-incubation assay, in words (PEDV-GFP [1]): potent inhibition of viral infection in Vero cells at all three concentrations; prevention of PEDV-GFP entry into Vero cells, extended AMP panel, in words (PEDV-GFP [2]): strong antiviral activity; cytotoxicity (LDH release) (Vero cells): no toxic effects
